Consider 21 compounds from US20170217976A1, “6-(AMINO ACID)-MORPHINAN DERIVATIVES IN COMBINATION WITH PERMEATION […] FOR USE AS AN ORALLY, […], TRA[…] NASALLY AD[…]” (C[…], priority 2014, published 2017).

Read-outs that look alike come from different tables or passages of the source.

One assay deals with T1, MOR (Rattus norvegicus, UniProt P33535).
T1 construct: from tissue
Nature of the assay: Opioid receptor binding, MOR, rat brain membranes.

For the next assay, the target named is T2, DOR (Rattus norvegicus, UniProt P33533).
T2 construct: from tissue
T2 sequence (P33533 whole entry): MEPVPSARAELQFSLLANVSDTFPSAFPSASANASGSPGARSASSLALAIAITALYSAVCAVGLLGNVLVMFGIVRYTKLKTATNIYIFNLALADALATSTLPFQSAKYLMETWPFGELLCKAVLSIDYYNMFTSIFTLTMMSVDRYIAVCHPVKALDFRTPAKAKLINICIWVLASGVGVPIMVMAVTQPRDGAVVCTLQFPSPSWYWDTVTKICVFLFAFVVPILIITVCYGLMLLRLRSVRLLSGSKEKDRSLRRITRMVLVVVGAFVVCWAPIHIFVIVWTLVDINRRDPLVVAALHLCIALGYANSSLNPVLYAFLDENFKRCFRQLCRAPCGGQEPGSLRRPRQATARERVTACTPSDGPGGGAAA
The experiment in a line: Opioid receptor binding, DOR, rat brain membranes.

In another assay the target is T3, KOR (Cavia porcellus, UniProt P41144).
T3 construct: from tissue
T3 sequence (P41144 whole entry): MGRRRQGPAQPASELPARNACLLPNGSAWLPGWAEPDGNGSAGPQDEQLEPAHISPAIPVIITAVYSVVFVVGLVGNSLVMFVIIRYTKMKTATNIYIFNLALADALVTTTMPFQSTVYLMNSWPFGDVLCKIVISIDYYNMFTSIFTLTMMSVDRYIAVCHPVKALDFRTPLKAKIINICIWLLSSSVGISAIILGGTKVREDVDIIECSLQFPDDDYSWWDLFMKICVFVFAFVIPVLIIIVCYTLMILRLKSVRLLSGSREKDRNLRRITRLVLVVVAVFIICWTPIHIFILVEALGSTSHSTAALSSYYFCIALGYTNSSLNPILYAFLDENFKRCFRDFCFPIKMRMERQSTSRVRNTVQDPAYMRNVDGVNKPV
The experiment in a line: Opioid receptor binding, KOR, guinea pig brain membranes.

For assay [1], the target named is T4, human MOP expressed in CHO cells (Homo sapiens, UniProt P35372).
T4 construct: expressed in transfected cells; host or cells: CHO cells (per the unit's head)
T4 sequence (P35372 whole entry): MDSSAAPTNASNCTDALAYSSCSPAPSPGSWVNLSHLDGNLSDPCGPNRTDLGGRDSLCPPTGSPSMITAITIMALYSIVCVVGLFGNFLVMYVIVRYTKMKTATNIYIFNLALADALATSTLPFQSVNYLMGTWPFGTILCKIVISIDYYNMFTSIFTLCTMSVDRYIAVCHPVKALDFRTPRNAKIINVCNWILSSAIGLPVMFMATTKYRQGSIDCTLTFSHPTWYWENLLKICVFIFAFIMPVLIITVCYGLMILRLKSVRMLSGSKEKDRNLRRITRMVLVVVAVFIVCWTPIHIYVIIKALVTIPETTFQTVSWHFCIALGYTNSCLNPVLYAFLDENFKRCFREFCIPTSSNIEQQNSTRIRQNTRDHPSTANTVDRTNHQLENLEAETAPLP
Nature of the assay: [35S]GTPγS binding, antagonism at MOR (Ke against DAMGO). It is filed as biochemical. As to conditions: for Kb: [35S]GTPγS binding, MOR Ke, Table 1-6, antagonist Ke measured against DAMGO. (In general: GTPγS is a poorly hydrolysed GTP analogue; its binding reports G protein activation.)

Where [2] appears, read: Binding Ki MOR, Table 1-6, rat brain membranes.
Setting [3] is: Binding Ki MOR, Table 2-6, rat brain membranes.
Setting [4] is: Binding Ki DOR, Table 1-6, rat brain membranes.
[5] abbreviates: Binding Ki DOR, Table 2-6, rat brain membranes.
The mark [6] stands for this setting: Binding Ki KOR, Table 1-6, guinea pig brain membranes.
[7] abbreviates: Binding Ki KOR, Table 2-6, guinea pig brain membranes.
Where [8] appears, read: Binding Ki (nM) MOR, in vitro binding assay, rat brain membranes.
The mark [9] stands for this setting: Binding Ki (nM) DOR, in vitro binding assay, rat brain membranes.
Where [10] appears, read: Binding Ki (nM) KOR, in vitro binding assay, guinea pig brain membranes.
Setting [11] is: in vitro binding assay, rat brain membranes, read-out: Binding Ki (nM) MOR.
The mark [12] stands for this setting: in vitro binding assay, rat brain membranes, read-out: Binding Ki (nM) DOR.
The mark [13] stands for this setting: in vitro binding assay, guinea pig brain membranes, read-out: Binding Ki (nM) KOR.

T1 sequence (P33535 whole entry): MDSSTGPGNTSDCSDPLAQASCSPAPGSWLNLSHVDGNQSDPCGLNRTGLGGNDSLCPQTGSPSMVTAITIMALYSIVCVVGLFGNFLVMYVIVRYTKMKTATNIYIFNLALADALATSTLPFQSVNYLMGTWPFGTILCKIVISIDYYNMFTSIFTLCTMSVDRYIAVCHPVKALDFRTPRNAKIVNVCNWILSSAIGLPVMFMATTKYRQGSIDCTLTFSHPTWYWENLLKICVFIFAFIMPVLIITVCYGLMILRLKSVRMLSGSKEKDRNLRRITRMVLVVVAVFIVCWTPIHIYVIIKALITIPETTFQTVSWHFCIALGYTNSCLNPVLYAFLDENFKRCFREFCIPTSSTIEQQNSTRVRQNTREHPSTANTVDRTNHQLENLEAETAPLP

The term Ki denotes the dissociation constant of the complex between target and ligand, obtained from inhibition or displacement. One may read the EC50 as the concentration that produces a half-maximal response. In general, Kb refers to the equilibrium dissociation constant of an antagonist, usually derived from a functional assay. Higher therefore signals lower antagonist affinity. For the compound `O=C(O)C(Cc1ccccc1)NC1CCC2(O)C3Cc4ccc(O)c5c4C2(CCN3CC2CC2)C1O5` (single isomer, unassigned) [Compound 59], the Ki amounted to 1.41 nM on MOR (setting [2]); 1.41 nM at MOR (setting [3]); 3.53 nM at DOR (setting [4]); 3.53 nM on DOR (setting [5]); 2.65 nM on KOR (setting [6]); 2.65 nM on KOR (setting [7]). In assay [1], this compound had a concentration giving a half-maximal response (EC50) of more than 10 µM. For the same compound, the Kb in assay [1] stood at 0.25 nM.

Regarding `O=C(O)C(Cc1ccccc1)NC1CCC2(O)C3Cc4ccc(O)c5c4C2(CCN3CC2CC2)C1O5` (single isomer, unassigned) [Compound 60], the Ki worked out at 1.83 nM on MOR (setting [2]); 1.83 nM on MOR (setting [3]); 2.79 nM on DOR (setting [4]); 2.79 nM on DOR (setting [5]); 8.99 nM at KOR (setting [6]); 8.99 nM at KOR (setting [7]). Further, in assay [1], the Kb is 0.24 nM. Moreover, the EC50 in assay [1] (read-out: [35S]GTPγS binding, MOR EC50, Table 1-6, stimulation of [35S]GTPγS binding) was more than 10 µM.

As to `CCO[C@@]12CCC(=O)[C@@H]3Oc4c(O)ccc5c4[C@@]31CCN(CC1CC1)[C@@H]2C5` [Compound 14-OEt-NTX, 14-O-Ethylnaltrexone, reference compound], the Ki at MOR (setting [2]) was found to be 0.35 nM; at MOR (setting [3]) it was 0.35 nM; on DOR (setting [4]), 4.13 nM; on DOR (setting [5]), 4.13 nM; at KOR (setting [6]), 0.93 nM; at KOR (setting [7]), 0.93 nM. This compound gave a concentration for a half-maximal effect (EC50) in assay [1] of more than 10 µM. Moreover, in assay [1], the antagonist dissociation constant (Kb) amounted to 0.31 nM.

Consider `CO[C@@]12CCC(=O)[C@@H]3Oc4c(O)ccc5c4[C@@]31CCN(CC1CC1)[C@@H]2C5` [Compound 14-OMe-NTX, 14-O-Methylnaltrexone, reference compound], for which the Ki worked out at 0.46 nM on MOR (setting [2]); 0.46 nM on MOR (setting [3]); 7.88 nM at DOR (setting [4]); 7.88 nM on DOR (setting [5]); 1.17 nM at KOR (setting [6]); 1.17 nM on KOR (setting [7]). The compound further yielded an EC50 in assay [1] of more than 10 µM. For the same compound, the Kb in assay [1] was 0.49 nM.

As for `CO[C@@]12CC[C@H](NCC(=O)O)[C@@H]3Oc4c(O)ccc5c4[C@@]31CCN(CC1CC1)[C@@H]2C5` [Compound 61], the Ki on MOR (setting [2]) stood at 0.68 nM; on MOR (setting [3]), 0.68 nM; on DOR (setting [4]), 5.15 nM; on DOR (setting [5]) it was 5.15 nM; at KOR (setting [6]), 4.65 nM; at KOR (setting [7]) it was 4.65 nM. The compound further had an EC50 in assay [1] of more than 10 µM. The compound further showed a Kb in assay [1] of 0.63 nM.

For the compound `CO[C@@]12CC[C@@H](NCC(=O)O)[C@@H]3Oc4c(O)ccc5c4[C@@]31CCN(CC1CC1)[C@@H]2C5` [Compound 62], the Ki on MOR (setting [2]) was determined as 1.31 nM; on MOR (setting [3]), 1.31 nM; on DOR (setting [4]), 4.76 nM; at DOR (setting [5]), 4.76 nM; on KOR (setting [6]), 9.31 nM; on KOR (setting [7]), 9.31 nM. The compound further gave an EC50 in assay [1] of more than 10 µM. In assay [1], this compound showed a Kb of 0.19 nM.

Regarding `CO[C@@]12CC[C@H](NCCC(=O)O)[C@@H]3Oc4c(O)ccc5c4[C@@]31CCN(CC1CC1)[C@@H]2C5` [Compound 63], the Ki at MOR (setting [2]) turned out to be 1.35 nM; at MOR (setting [3]), 1.35 nM; at DOR (setting [4]) it was 6.25 nM; at DOR (setting [5]), 6.25 nM; on KOR (setting [6]), 7.81 nM; on KOR (setting [7]) it was 7.81 nM. In addition, the EC50 in assay [1] was more than 10 µM. Also, the Kb in assay [1] was 0.27 nM.

For `CO[C@@]12CC[C@@H](NCCC(=O)O)[C@@H]3Oc4c(O)ccc5c4[C@@]31CCN(CC1CC1)[C@@H]2C5` [Compound 64], the Ki on MOR (setting [2]) stood at 1.51 nM; on MOR (setting [3]) it was 1.51 nM; on DOR (setting [4]) it was 8.12 nM; at DOR (setting [5]), 8.12 nM; on KOR (setting [6]), 11.7 nM; at KOR (setting [7]) it was 11.7 nM. In addition, the concentration giving a half-maximal response (EC50) in assay [1] was more than 10 µM. Moreover, the Kb in assay [1] came out at 0.96 nM.

With `CO[C@@]12CC[C@@H](N[C@@H](CC(=O)O)C(=O)O)[C@@H]3Oc4c(O)ccc5c4[C@@]31CCN(CC1CC1)[C@@H]2C5` [Compound 73], the Ki at MOR (setting [2]) was found to be 2.24 nM; on MOR (setting [3]), 2.24 nM; at DOR (setting [4]), 0.64 nM; on DOR (setting [5]), 0.64 nM; at KOR (setting [6]) it was 11.7 nM; on KOR (setting [7]) it was 11.7 nM.

For `COC12CCC(NC(CCC(=O)O)C(=O)O)C3Oc4c(O)ccc5c4C31CCN(CC1CC1)C2C5` (stereo not shown) [Compound 74], the Ki on MOR (setting [2]) is 1.93 nM; on MOR (setting [3]) it was 1.93 nM; on DOR (setting [4]), 3.61 nM; on DOR (setting [5]), 3.61 nM; at KOR (setting [6]), 6.66 nM; on KOR (setting [7]), 6.66 nM.

For the compound `CO[C@@]12CC[C@@H](N[C@@H](CCC(=O)O)C(=O)O)[C@@H]3Oc4c(O)ccc5c4[C@@]31CCN(CC1CC1)[C@@H]2C5` [Compound 75], the Ki on MOR (setting [2]) worked out at 3.35 nM; at MOR (setting [3]), 3.35 nM; on DOR (setting [4]), 2.77 nM; at DOR (setting [5]), 2.77 nM; on KOR (setting [6]) it was 12.9 nM; at KOR (setting [7]) it was 12.9 nM.

As to `CO[C@@]12CC[C@H](N[C@@H](CC(C)C)C(=O)O)[C@@H]3Oc4c(O)ccc5c4[C@@]31CCN(CC1CC1)[C@@H]2C5` [Compound 76], the Ki was 0.72 nM on MOR (setting [3]), 2.2 nM on DOR (setting [5]) and 7.87 nM at KOR (setting [7]).

Take `CO[C@@]12CC[C@@H](N[C@@H](CC(C)C)C(=O)O)[C@@H]3Oc4c(O)ccc5c4[C@@]31CCN(CC1CC1)[C@@H]2C5` [Compound 77]: the Ki was 1.96 nM on MOR (setting [3]), 1.13 nM at DOR (setting [5]) and 11 nM on KOR (setting [7]).

Consider `CC[C@H](C)[C@H](N[C@@H]1CC[C@@]2(OC)[C@H]3Cc4ccc(O)c5c4[C@@]2(CCN3CC2CC2)[C@H]1O5)C(=O)O` [Compound 78], for which the Ki at MOR (setting [3]) was determined as 1.62 nM; at DOR (setting [5]), 1.44 nM; on KOR (setting [7]) it was 9.49 nM.

Consider `CC[C@H](N[C@@H]1CC[C@@]2(OC)[C@H]3Cc4ccc(O)c5c4[C@@]2(CCN3CC2CC2)[C@H]1O5)C(=O)O` [Compound 79], for which the figures for the inhibition constant (Ki) at MOR (setting [2]), at DOR (setting [4]) and at KOR (setting [6]) were 3.39 nM, 6.2 nM and 19.1 nM, respectively.

Turning to `CCOC(=O)CN[C@H]1CC[C@@]2(OC)[C@H]3Cc4ccc(O)c5c4[C@@]2(CCN3C)[C@H]1O5` [HS730-Et ester], the figures for the Ki on MOR (setting [8]), on DOR (setting [9]) and at KOR (setting [10]) were 0.28 nM, 0.96 nM and 8.57 nM, respectively.

On to `CO[C@@]12CC[C@H](NCC(=O)OCc3ccccc3)[C@@H]3Oc4c(O)ccc5c4[C@@]31CCN(C)[C@@H]2C5` [HS730-benzyl ester], for which the Ki on MOR (setting [8]) is 0.19 nM; at DOR (setting [9]), 0.91 nM; on KOR (setting [10]), 0.47 nM.

Turning to `CCCCCCCCOC(=O)CN[C@H]1CC[C@@]2(OC)[C@H]3Cc4ccc(O)c5c4[C@@]2(CCN3C)[C@H]1O5` [HS730-nOc ester], the results for the Ki on MOR (setting [11]), at DOR (setting [12]) and on KOR (setting [13]) were 1.29 nM, 3.23 nM and 2.97 nM, respectively.

Turning to `CO[C@@]12CC[C@@H](NCC(=O)OCc3ccccc3)[C@@H]3Oc4c(O)ccc5c4[C@@]31CCN(C)[C@@H]2C5` [HS731-benzyl ester], the Ki at MOR (setting [8]) is 0.29 nM; at DOR (setting [12]), 0.74 nM; at KOR (setting [13]), 2.86 nM.

Turning to `CCCCCCCCOC(=O)CN[C@@H]1CC[C@@]2(OC)[C@H]3Cc4ccc(O)c5c4[C@@]2(CCN3C)[C@H]1O5` [HS731-nOc ester], the Ki at MOR (setting [11]) came out at 2.56 nM; at DOR (setting [12]) it was 2.71 nM; on KOR (setting [13]), 3.87 nM.

Take `CO[C@@]12CC[C@@H](NCC(=O)OC(C)(C)C)[C@@H]3Oc4c(O)ccc5c4[C@@]31CCN(C)[C@@H]2C5` [HS731-t-Bu ester]: the Ki at MOR (setting [8]) stood at 1.3 nM; on DOR (setting [12]), 0.68 nM; at KOR (setting [13]) it was 56.2 nM.
